# From patent publication US4256751A, “Tetrahydroisoquinoline derivatives” (Tanabe Seiyaku Co., Ltd., priority 1978, dated 1981)
# Experiments:
# mice = assay: Oral toxicity in mice; type: in vivo; settings: 3 g/kg
# Excerpt: . Moreover, the compound (I) of the present invention decreases aggregation of blood platelets and can be used to improve blood flow disturbances or other vascular diseases due to the formation of platelet aggregates (i.e., thrombus). Since the hypertensive disease is largely found in the aged subjects who show an increased tendency to capillary fragility or thrombosis, therefore, the compound (I) of the invention is useful to prevent, in addition to the treatment of hypertension, the genesis of thrombosis and other occlusive vascular diseases of such subjects. Further, the toxicity of the compound (I) is considerably low. […]
# [1] = system: spontaneously hypertensive rats (SHR); assay: Hypotensive activity in SHR; type: in vivo, rat (SHR); settings: 50 mg/kg orally
# Description: A test compound (dose: 50 mg/kg) suspended in an aqueous carboxymethylcellulose solution was administered orally to spotaneously hypertensive rats (SHR) fasted for a day. The systolic blood pressure of the rats was measured by the tail plethysmographic technique (The Journal of Laboratory and Clinic Medicine 78(1971), page 957). The hypotensive activity of the test compound was estimated from the decreased level of blood pressure.
# [2] = system: ADP-induced platelet aggregation; assay: Platelet aggregation-inhibiting activity (ADP-induced, diluted platelet-rich plasma); type: cell-based, dog (male beagle); settings: Canis lupus familiaris, test compound solution 100 μg/ml, added 2 minutes before ADP, beagle PRP, read-out: Platelet aggregation inhibiting activity (percentage inhibition of the second wave of ADP-induced platelet aggregation)
# Description: The bottom layer was further centrifuged at 1000×g for 15 minutes to give platelet-poor plasma (PPP) as the supernatant solution.
# ACE = assay: ACE-inhibitory activity in vivo (pressor response to angiotensin I); set-up: species or system rat (normotensive); settings: 0.1 mg/kg intravenously; angiotensin I 300 ng/kg i.v.; anesthetized normotensive rats
# Description: Normotensive rats weighing 300-400 g were anesthetized with urethane(1.5 g/kg, s.c.), and angiotensin I (300 ng/kg) was injected into the femoral vein of the rats. The pressor response to angiotensin I was measured with a pressure transducer connected to the carotid artery. Then, a test compound was injected intravenously thereto at a dose of 0.1 mg/kg, and angiotensin I (300 ng/kg) was further injected intravenously at intervals. The ACE-inhibitory activity of the test compound was estimated from the pressor responses to angiotensin I which were obtained before and after intraveous injection of the test compound.
structure (smiles),measurement,setting,value
"C[C@H](CS)C(=O)N1Cc2ccccc2C[C@H]1C(=O)O [(3S)-2-[(2S)-3-mercapto-2-methyl-propionyl]-1,2,3,4-tetrahydroisoquinoline-3-carboxylic acid]",mortality five days after oral administration,mice,no mouse died
same,Hypotensive activity in SHR: Duration of action,[1],> 6 h
same,Hypotensive activity in SHR: Decrease in blood pressure,"[1]; systolic, tail plethysmographic",ca. 20%
same,inhibition at 100 µg/mL,[2],86%
same,ACE-inhibitory activity in vivo (percentage inhibition of ACE activity in vivo),ACE,90%
